From patent US5547978A, “Derivatives of pyrrolidin-2-ylcarbonylheterocyclic compounds” (priority 1994, dated 1996) come the findings set out here.

The target of the first test is T1, prolyl endopeptidase (Sus scrofa, UniProt P23687).
T1 construct: porcine kidney enzyme which was prepared according to methods of Walter and Yoshimoto et al; from tissue; host or cells: porcine kidney
T1 sequence (P23687 whole entry): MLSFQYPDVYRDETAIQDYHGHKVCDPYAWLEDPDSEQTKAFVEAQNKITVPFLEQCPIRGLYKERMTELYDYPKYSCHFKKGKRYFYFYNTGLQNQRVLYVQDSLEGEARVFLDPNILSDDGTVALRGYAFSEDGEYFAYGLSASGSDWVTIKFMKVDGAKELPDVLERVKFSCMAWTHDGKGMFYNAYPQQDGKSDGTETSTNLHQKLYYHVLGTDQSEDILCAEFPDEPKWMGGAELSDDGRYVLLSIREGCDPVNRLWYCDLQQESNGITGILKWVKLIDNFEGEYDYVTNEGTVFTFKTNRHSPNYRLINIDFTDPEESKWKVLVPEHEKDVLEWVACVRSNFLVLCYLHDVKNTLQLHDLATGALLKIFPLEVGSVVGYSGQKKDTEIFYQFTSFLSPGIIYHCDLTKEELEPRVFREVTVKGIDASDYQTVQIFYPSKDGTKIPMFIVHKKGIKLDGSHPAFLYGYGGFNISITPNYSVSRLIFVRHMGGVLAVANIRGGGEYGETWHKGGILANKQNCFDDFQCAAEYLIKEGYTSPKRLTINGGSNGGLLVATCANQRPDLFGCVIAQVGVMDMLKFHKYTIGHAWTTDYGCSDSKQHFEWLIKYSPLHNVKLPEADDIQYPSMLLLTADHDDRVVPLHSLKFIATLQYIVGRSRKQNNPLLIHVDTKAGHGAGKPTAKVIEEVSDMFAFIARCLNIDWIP
The experiment in a line: Prolyl endopeptidase-inhibitory activity in vitro (porcine kidney enzyme, Z-Gly-Pro-p-nitroanilide substrate). The format is biochemical.
Settings: not given
The method, then:
A test compound (2 mg) was dissolved in DMSO (2 ml) and diluted to appropriate concentrations with DMSO. Z-Gly-Pro-p-nitroanilide (8 mg), a substrate was dissolved in dioxane (5 ml), water (27 ml) and 0.2 M phosphate buffer (pH 7.8, 40 ml). The substrate solution ([…]) was mixed with an inhibitor solution (3 ml) and followed by addition of above mentioned porcine kidney enzyme solution ([…]). Immediately after the mixing the UV absorbance at 405 nm was detected. The mixture was incubated at 37° C. for 20 min. and the UV absorbance was checked. A standard curve of absorbance (OD) vs. p-nitroaniline concentration was used to relate the absorbance to amount of substrate hydrolyzed. […] The inhibiting activity was obtained following the equation below. The IC50 value was estimated from the inhibitor concentration vs. inhibitory activity curve.
The percent inhibitory activity (%)=(ΔODc -ΔODs)/ΔODc ×100
ΔODs : ΔOD for test sample
In turn, `O=C(c1nccs1)[C@@H]1CCCN1C(=O)[C@@H]1C[C@@H](Sc2ccccc2)CN1C(=O)OCc1ccccc1` [Example 2, 2-[1-{1-Benzyloxycarbonyl-4(R)-phenylthiopyrrolidin-2(S)-ylcarbonyl}pyrrolidin-2(S)-ylcarbonyl]thiazole] showed an IC50 of 4.79 nM.
Still for that read-out and setting: with `O=C(c1cocn1)[C@@H]1CCCN1C(=O)[C@@H]1Cc2ccccc2N1C(=O)OCc1ccccc1` [Example 3, 4-{1-(1-Benzyloxycarbonylindolin-2(S)-ylcarbonyl)pyrrolidin2(S) -ylcarbonyl}oxazole] the figure was 9.54 nM; with `O=C(c1nccs1)[C@@H]1CCCN1C(=O)[C@@H]1CCCN1C(=O)OCc1ccccc1` [Example 4, 2-{1-(1-Benzyloxycarbonylpyrrolidin-2(S)-ylcarbonyl)pyrrolidin-2(S)-ylcarbonyl}thiazole], 5.8 nM.
With `O=C(c1nccs1)[C@@H]1CCCN1C(=O)[C@@H]1CC2CCCCC2N1C(=O)OCc1ccccc1` (stereo partly drawn) [Example 6, 2-{1(1-Benzyloxycarbonyloctahydroindol-2(S)-ylcarbonyl)pyrrolidin-2(S)ylcarbonyl}thiazole], half-maximal inhibition (IC50) was put at 4.28 nM.
The same measure, in the same setting: with `O=C(c1nccs1)[C@@H]1CCCN1C(=O)[C@@H]1CC2CCCCC2N1C(=O)CCCc1ccccc1` (stereo partly drawn) [Example 7, 2-[1-{1-(4-Phenylbutanoyl)octahydroindol-2(S)-ylcarbonyl}pyrrolidin-2(S)-ylcarbonyl]thiazole] the figure was 2.4 nM.
In turn, `O=C(c1nccs1)[C@@H]1CCCN1C(=O)[C@@H]1Cc2ccccc2N1C(=O)OCc1ccccc1` [Example 8, 2-{1-(1-Benzyloxycarbonylindolin-2(S)-ylcarbonyl)pyrrolidin-2(S)-ylcarbonyl}thiazole] had an IC50 of 3.68 nM.
On the same count and under the same terms, with `O=C(c1nccs1)[C@@H]1CCCN1C(=O)[C@@H]1Cc2ccccc2N1C(=O)CCCc1ccccc1` [Example 9, 2-[1-{1-(4-Phenylbutanoyl)indolin-2(S)-ylcarbonyl}pyrrolidin-2(S)-ylcarbonyl]thiazole] the figure was 5.49 nM; with `O=C(c1nccs1)[C@@H]1CCCN1C(=O)[C@@H]1C[C@@H](Sc2ccccc2)CN1C(=O)CCCc1ccccc1` [Example 10, 2-[1-{1-(4-Phenylbutanoyl)-4(R)-phenylthiopyrrolidin-2(S)-ylcarbonyl}-pyrrolidin-2(S)-ylcarbonyl]thiazole], 1.12 nM; with `O=C(CSCc1ccccc1)C1CCCCC1C(=O)N1CCC[C@H]1C(=O)c1nccs1` (stereo partly drawn) [Example 16, 2-[1-(2-Benzylthioacetylcyclohexan-1-ylcarbonyl)pyrrolidin-2(S)-ylcarbonyl]thiazole], 53.7 nM.
`O=C(c1nc2ccccc2s1)[C@@H]1CCCN1C(=O)[C@@H]1CCCN1C(=O)OCc1ccccc1` [Example 17, 2-{1-(1-Benzyloxycarbonylpyrrolidin-2(S)-ylcarbonyl)pyrrolidin-2(S)-ylcarbonyl}benzothiazole] had an IC50 of 3.78 nM.
Take `O=C(c1nc2ccccc2s1)[C@@H]1CCCN1C(=O)[C@@H]1Cc2ccccc2N1C(=O)OCc1ccccc1` [Example 18, 2-{1-(1-Benzyloxycarbonylindolin-2(S)-ylcarbonyl)pyrrolidin-2(S)-ylcarbonyl}benzothiazole]: 7.33 nM corresponded to half-maximal inhibition (IC50).
Molecule `O=C(c1nc2ccccc2s1)[C@@H]1CCCN1C(=O)[C@@H]1Cc2ccccc2N1C(=O)CCCc1ccccc1` [Example 19, 2-[1-{1-(4-Phenylbutanoyl)indolin-2(S)-ylcarbonyl}pyrrolidin-2(S)-ylcarbonyl]benzothiazole] had an IC50 of 5.44 nM.
Still for that read-out and setting: with `O=C(c1nc2ccccc2s1)[C@@H]1CCCN1C(=O)[C@@H]1C[C@@H](Sc2ccccc2)CN1C(=O)OCc1ccccc1` [Example 20, 2-{1-(1-Benzyloxycarbonyl-4(R)-phenylthiopyrrolidin-2(S)-ylcarbonyl)pyrrolidin-2(S)-ylcarbonyl}benzothiazole] the figure was 2.45 nM.
The molecule `O=C(c1nc2ccccc2s1)[C@@H]1CCCN1C(=O)[C@@H]1C[C@@H](Sc2ccccc2)CN1C(=O)CCCc1ccccc1` [Example 21, 2-[1-{1-(4-Phenylbutanoyl)-4(R)-phenylthiopyrrolidin-2(S)-ylcarbonyl}pyrrolidin-2(S)-ylcarbonyl]benzothiazole] showed an IC50 of 1.8 nM.
Still for that read-out and setting: with `O=C(CSCc1ccccc1)C1CCCCC1C(=O)N1CCC[C@H]1C(=O)c1nc2ccccc2s1` (stereo partly drawn) [Example 22, 2-[1-(2-Benzylthioacetylcyclohexan-1-ylcarbonyl)pyrrolidin-2(S)-ylcarbonyl]benzothiazole] the figure was 12.6 nM.
On the same count and under the same terms, with `Cc1nc(C(=O)[C@@H]2CCCN2C(=O)[C@@H]2CCCN2C(=O)CCCc2ccccc2)sc1C` [Example 27, 4,5-Dimethyl-2-[1-{1-(4-phenylbutanoyl)pyrrolidin-2(S)-ylcarbonyl}pyrrolidin-2(S)-ylcarbonyl]thiazole] the figure was 6.06 nM; with `O=C(c1nc2ccccc2[nH]1)[C@@H]1CCCN1C(=O)[C@@H]1CCCN1C(=O)CCCc1ccccc1` [Example 29, 2-[1-{1-(4-Phenylbutanoyl)pyrrolidin-2(S)-ylcarbonyl}pyrrolidin-2(S)-ylcarbonyl]-1H-benzimidazole], 3.82 nM; with `O=C(c1cccnc1)[C@@H]1CCCN1C(=O)[C@@H]1CCCN1C(=O)CCCc1ccccc1` [Example 30, 3-[1-{1-(4-Phenylbutanoyl)pyrrolidin-2(S)-ylcarbonyl}pyrrolidin-2(S)-ylcarbonyl]pyridine], 2620 nM.
Same read-out and setting: with `O=C(c1cncnc1)[C@@H]1CCCN1C(=O)[C@@H]1CCCN1C(=O)CCCc1ccccc1` [Example 31, 5-[1-{1-(4-Phenylbutanoyl)pyrrolidin-2(S)-ylcarbonyl}pyrrolidin-2(S)-ylcarbonyl]pyrimidine] the figure was 64.2 nM; with `O=C(c1ccccn1)[C@@H]1CCCN1C(=O)[C@@H]1CCCN1C(=O)CCCc1ccccc1` [Example 32, 2-[1-{1-(4-Phenylbutanoyl)pyrrolidin-2(S)-ylcarbonyl}pyrrolidin-2(S)-ylcarbonyl]pyridine], 7.15 nM.
`O=C(c1nc[nH]n1)[C@@H]1CCCN1C(=O)[C@@H]1CCCN1C(=O)CCCc1ccccc1` [Example 34, 3-[1-{1-(4-Phenylbutanoyl)pyrrolidin-2(S)-ylcarbonyl}pyrrolidin-2(S)-ylcarbonyl]1,2,4-triazole] had an IC50 of 6.11 nM.
`O=C(c1nc2ccccc2o1)[C@@H]1CCCN1C(=O)[C@@H]1CCCN1C(=O)CCCc1ccccc1` [Example 36, 2-[1-{1-(4-Phenylbutanoyl)pyrrolidin-2(S)-ylcarbonyl}pyrrolidin-2(S)-ylcarbonyl]benzoxazole] had an IC50 of 4.13 nM.
Regarding `O=C(c1nc2ncccc2o1)[C@@H]1CCCN1C(=O)[C@@H]1CCCN1C(=O)CCCc1ccccc1` [Example 37, 2-[1 -{1-(4-Phenylbutanoyl)pyrrolidin-2(S)-ylcarbonyl}pyrrolidin-2(S)-ylcarbonyl]oxazolo[4,5-b]pyridine], it took 4.78 nM to reach half-maximal inhibition (IC50).
On the same count and under the same terms, with `O=C(c1nc2ncccc2[nH]1)[C@@H]1CCCN1C(=O)[C@@H]1CCCN1C(=O)CCCc1ccccc1` [Example 38, 2-[1-{1-(4-Phenylbutanoyl)pyrrolidin-2(S)-ylcarbonyl}pyrrolidin-2(S)-ylcarbonyl]imidazo[4,5-b]pyridine] the figure was 6.09 nM; with `O=C(c1nc2ccccc2[nH]1)[C@@H]1CCCN1C(=O)[C@@H]1CCCN1C(=O)OCc1ccccc1` [Example 39], 7.61 nM.

Still in this test, the particulars now being: porcine kidney enzyme, pH 7.8, 37° C., 20 min.
“2-[1-{1-(4-Phenylbutanoyl)indolin-2(S)-ylcarbonyl}pyrrolidin-2(S)-ylcarbonyl]oxazole [Example 24]” came in with an IC50 of 0.0055 µg/mL.
The molecule “2-[1-{1-(4-Phenylbutanoyl)pyrrolidin-2(S)-ylcarbonyl}pyrrolidin-2(S)-ylcarbonyl]oxazole [Example 23]” had a half-inhibitory concentration (IC50) of 0.0032 µg/mL.
The same measure, in the same setting: with “2-[1-{1-(4-Phenylbutanoyl)pyrrolidin-2(S)-ylcarbonyl}pyrrolidin-2(S)-ylcarbonyl]pyrazole [Example 35]” the figure was 0.046 µg/mL.
With `O=C(c1nccs1)[C@@H]1CCCN1C(=O)[C@@H]1CCCN1C(=O)CCCc1ccccc1` [Example 5, 2-[1-{1(4-Phenylbutanoyl)pyrrolidin-2(S)-ylcarbonyl}pyrrolidin-2(S)-ylcarbonyl]thiazole], the IC50 turned out to be 0.00133 µg/mL.
Same read-out and setting: with `O=C(CSCc1ccccc1)C1CCCC1C(=O)N1CCC[C@H]1C(=O)c1nccs1` (stereo partly drawn) [Example 15, 2-[1-{2-Benzylthioacetylcyclopentan-1-ylcarbonyl)pyrrolidin-2(S)-ylcarbonyl}thiazole] the figure was 54.2 nM.
The same measure, in the same setting: with `O=C(c1cccs1)[C@@H]1CCCN1C(=O)[C@@H]1CCCN1C(=O)CCCc1ccccc1` [Example 26, 2-[1-{1-(4-Phenylbutanoyl)pyrrolidin-2(S)-ylcarbonyl}pyrrolidin-2(S)-ylcarbonyl]thiophene] the figure was 0.81 µg/mL; with `O=C(c1cncs1)[C@@H]1CCCN1C(=O)[C@@H]1CCCN1C(=O)CCCc1ccccc1` [Example 33, 5-[1-{1-(4-Phenylbutanoyl)pyrrolidin-2(S)-ylcarbonyl}pyrrolidin-2(S)-ylcarbonyl]thiazole], 0.275 µg/mL.

Staying with this test, now noted: porcine kidney enzyme, pH 7.8, 37° C., 20 min; read-out: IC50 (converted).
On to `O=C(c1cccs1)[C@@H]1CCCN1C(=O)[C@@H]1CCCN1C(=O)OCc1ccccc1` [Example 25], for which the IC50 is 1380 nM.
Same read-out and setting: with `O=C(c1ncc[nH]1)[C@@H]1CCCN1C(=O)[C@@H]1CCCN1C(=O)CCCc1ccccc1` [Example 28, 2-[1-{1-(4-Phenylbutanoyl)pyrrolidin-2(S)-ylcarbonyl}pyrrolidin-2(S)-ylcarbonyl]-1H-imidazole] the figure was 6.24 nM.
